In patent US4565814A, “Pyridazine derivatives having a psychotropic action and compositions” (priority 1983, dated 1986):
Where two headings read alike, the source gives them in different places.

Legend:
[1] = system: reserpine-induced ptosis in CD1 (Charles River) female mice; assay: Antagonism of reserpine-induced ptosis, intraperitoneal; assay type: in vivo; conditions: Mus musculus, ip, i.p., reserpine 2 mg/kg i.v., read 1 hour after reserpine
Description: ANTAGONISM OF RESERPINE-INDUCED PTOSIS
This test, which is described by GOURET (Journal de pharmacologie Paris 1973, 4 (1), 105-128), was carried out on CD1 (Charles River) female mice weighing 20 g plus or minus 1 g. Reserpine causes ptosis 1 hour after its intravenous administration; certain antidepressants oppose this ptosis.
The following protocol was selected:
The substances to be studied were administered intraperitoneally. The reserpine is administered intravenously at the same time, at a dose of 2 mg/kg.

[2] = system: CD1 Charles River female mice with unilateral lesion of the striatum; assay: Rotational behaviour after unilateral 6-hydroxydopamine lesion of the striatum, intraperitoneal; assay type: in vivo, mouse; conditions: for Rotational behaviour of mice (intraperitoneal administration): Table 9, decrease: minus sign printed at end of the dose line, * p < 0.01, Student test; for Rotational behaviour, intraperitoneal administration (change of rotations vs control): Table 8, 1 hour after administration
Description: CD1 Charles River female mice weighing from 20 to 24 g first undergo unilateral lesion of the striatum by the stereotaxic injection of 6-hydroxydopamine at a dose of 8 μg per animal. One week after this operation, the product is administered intraperitoneally to groups of 7 mice. The number of rotations is evaluated over 2 minutes, 1 hour after the administration of the product. Rotations on the same side as the lesion are counted as positive and those on the opposite side are counted as negative.

in vivo = assay type: in vivo; conditions: mouse, in vivo, ip; Table 9; i.p.; mortality noted for 24 hours; read-out: Toxicity, intraperitoneal administration, LD50
Description: (§1) The products to be studied were administered intraperitoneally in increasing doses to batches of 10 mice.
(§2) The 50% lethal dose, that is to say the dose causing the […] of 50% of the animals studied, is determined from the results obtained for each of the products studied.

[3] = system: CD1 (Charles River) female mice; assay: Despair behaviour (Porsolt forced-swim immobility), intraperitoneal; assay type: in vivo, mouse; conditions: Table 8, 1 hour before test, ++ significant (Student test)
Description: The principle of this test is as follows: when a mouse is placed in a narrow vessel filled with water, it struggles and then, after 2 to 4 minutes, it becomes immobile and floats on its abdomen, with its back hunched and its back paws tucked under the body, and it only makes the few movements necessary to keep its head above the water. This is the so-called despair reaction. Certain psychotropic drugs, in particular antidepressants, lengthen the time for which the mouse struggles. The following protocol was selected: The products to be studied were administered intraperitoneally 1 hour before the test. For the test, the animals are placed in a narrow vessel (10×10×10 cm) filled with water to a height of 6 cm, the temperature being 24° C. plus or minus 2° C. The animals are left in the water for 6 minutes and the time for which the animal remains immobile between the 2nd and 6th minutes is measured. The activity of the substance is the greater, the shorter this time. Each substance was studied on a batch of 10 mice. The results are the average of at least two experiments.

mice = assay: in vivo; assay type: in vivo; conditions: i.p., mortality noted for 24 hours
Description: as §1, §2

[4] = Table 9, read-out: Test for the antagonism of reserpine-induced ptosis, intraperitoneal administration, ED50
[5] = Table 8, read-out: Reserpine-induced ptosis, intraperitoneal administration, ED50
[6] = 2 mg/kg i.p., ++ significant (Student test)

N#Cc1cc(-c2ccsc2)nnc1NCCN1CCOCC1 [SR 95 274 A]
ED50 [1, 4]: 2.6 mg/kg
Rotational behaviour of mice (intraperitoneal administration) ([2]; 0.5 mg/kg i.p.): -60%
Rotational behaviour of mice (intraperitoneal administration) ([2]; 2 mg/kg i.p.): -82%
LD50 at 24 h (in vivo): > 300 mg/kg

CN(C)CCCN1c2ccccc2CCc2ccccc21 [iminaprine]
ED50 [1, 5]: 2.4 mg/kg
Despair behaviour, intraperitoneal administration (change of immobility time) ([3]; 10 mg/kg i.p.): -38%
Rotational behaviour, intraperitoneal administration (change of rotations vs control) ([2]; 3 mg/kg i.p., n.s.: not significant): -6%

Cc1cc(-c2ccccc2)nnc1NCCN1CCOCC1 [Minaprine]
ED50 [1, 5]: 5 mg/kg
ED50 [1, 4]: 5 mg/kg
Despair behaviour, intraperitoneal administration (change of immobility time) ([3]; 5 mg/kg i.p.): -31%
Rotational behaviour, intraperitoneal administration (change of rotations vs control) ([2]; 0.125 mg/kg i.p., ++ significant (Student test)): -53%
Rotational behaviour, intraperitoneal administration (change of rotations vs control) [2, 6]: -82%
Rotational behaviour of mice (intraperitoneal administration) ([2]; 2 mg/kg i.p.): -82%
Toxicity, intraperitoneal administration, LD50 (mice; Table 8): 63 mg/kg
Toxicity, intraperitoneal administration, LD50 (mice; Table 9): 63 mg/kg

Cl.Cl.N#Cc1cc(-c2ccccc2)nnc1NCCN1CCOCC1 [SR 95191, 3-(2-Morpholinoethylamino)-4-cyano-6-phenylpyridazine dihydrochloride]
ED50 [1, 5]: 3.9 mg/kg
Despair behaviour, intraperitoneal administration (change of immobility time) ([3]; 5 mg/kg i.p.): -26%
Rotational behaviour, intraperitoneal administration (change of rotations vs control) ([2]; 0.1 mg/kg i.p., ++ significant (Student test)): -60%
Rotational behaviour, intraperitoneal administration (change of rotations vs control) [2, 6]: -107%
